Here are results for 7 substances from US9295717B2, “Vaccine composition comprising 5′-cap modified RNA” (BIONTECH AG, priority 2009, dated 2016).

The subject of assay [1] is mature dendritic cells (mDCs). Kind of assay: Luciferase expression after electroporation of 5′-capped luciferase RNA into mature dendritic cells. In kind it is cell-based, human. As to conditions: for protein expression (in words) / transl. efficiency: luciferase RNA; for transl. efficiency: maximal slope of curve; for transl. efficiency / relative total protein expression: m7GpppG RNA set to 1, mean ± SD; for relative total protein expression: luciferase, 72 h time course; for time of max.: time point of maximal luciferase expression, mean ± SD.

In assay [2] the test system is immature dendritic cells (iDCs). Kind of assay: Luciferase expression after electroporation of 5′-capped luciferase RNA into immature dendritic cells. The format is cell-based, human. As to conditions: for transl. efficiency: maximal slope of curve; for transl. efficiency / relative total protein expression: m7GpppG RNA set to 1, mean ± SD; for relative total protein expression: luciferase, 72 h time course.

In assay [3] the target is Dcp2 (Homo sapiens, UniProt Q8IU60). As to conditions: background, earlier work; cited from earlier work.
Assay [4] relates to immature dendritic cells (iDCs). Kind of assay: RNA stability (half-life) by real time RT-PCR of d2eGFP RNA in immature dendritic cells. In kind it is cell-based, human.
Assay [5] relates to immature dendritic cells. Kind of assay: Luciferase activity with increasing RNA amounts (40 vs 20 pmol) in immature dendritic cells. The format is cell-based. As to conditions: iDCs. The procedure: (§1) FIG. 3. Competition for translation between ARCA- and beta-S-ARCA(D1)-capped RNAs. Immature dendritic cells (iDCs) were electroporated with (A) increasing amounts of luciferase-encoding RNAs or (B) the indicated amounts of luciferase- and d2eGFP-encoding mRNAs, which were co-transcriptionally capped either with ARCA or beta-S-ARCA(D1) as indicated. The luciferase activity was measured after 2, 4, 8, 24, 48, and 72 hours. Shown is (A) the ratio between the luciferase activities obtained after electroporation with 40 and 20 pmol luciferase-encoding RNAs (±SD of two independent experiments), and (B) the relative luciferase activity compared to cells electroporated with only luciferase-encoding RNA without RNA (set to 1 for both ARCA- and beta-S-ARCA(D1)-capped RNA).
The results described so far indicate that the translational efficiency of an mRNA is influenced in dendritic cells by the type of the cap structure at its 5′ end. This is most likely due to differences in the efficiency by which the translational machinery is recruited to the different 5′ cap-structures. To corroborate this, we next analyzed (i) the effect of the RNA dose that is used for electroporation into immature dendritic cells, and (ii) the impact of a second RNA co-electroporated into immature dendritic cells on the protein expression. By increasing the amount of the electroporated mRNA, it is expected that at some point one or more translation factor(s) will become rate limiting in the cell, which will then restrict the amount of protein that can be synthesized from the exogenous RNA. Similarly, a second RNA will compete for the translation machinery, again influencing the translation efficiency.
Increasing amounts (20 pmol and 40 pmol) of luciferase-encoding RNAs co-transcriptionally capped with either ARCA or beta-S-ARCA(D1) were electroporated into immature dendritic cells, and the luciferase activity was measured after 2, 4, 8, 24, 48, and 72 hours. […] At this time-point, the level of luciferase protein was only about 1.6-fold as high as when half the amount of RNA was used. This ratio decreased even further 48 and 72 hours after electroporation (1.4- and 1.2-fold, respectively).

Assay [6] deals with CD8^+-T-cells. Kind of assay: De novo T-cell priming after intranodal RNA immunization (tetramer staining). In kind it is in vivo. As to conditions: mice; intranodal immunization day 0 and day 3; day 8. How it is done: FIG. 6. Effect of the 5′-cap structure on de novo priming of T-cells after intranodal immunization with RNA. Mice (n=5) have been immunized by intranodal injection twice […] (day 0 and day 3) with the same amount of RNA encoding a specific peptide antigen which either carries ARCA or beta-S-ARCA(D1) at the 5′-end. The frequency of tetramer positive CD8^+-cells was determined on day 8 using tetramer analysis. (A) Representative dot plots of cells from the peripheral blood and the spleen of mice which have been immunized with ARCA or beta-S-ARCA(D1) RNA (as indicated). (B) Average number of tetramer positive CD8^+-cells±standard error of the mean (in %) as measured on day 8. The significance was determined using statistical analyses (*: P<0.075).
Mice were immunized by intranodal injection of naked RNA twice […] (at day 0 and at day 3) which encodes a specific antigen with the above modifications. On day 8 the frequency of antigen-specific T-cells in peripheral blood and in the spleen was determined using tetramer staining. As shown in FIG. 6 about 5% of the CD8^+-T-cells in peripheral blood and about 6% of the CD8^+-T-cells in the spleen were tetramer positive after duplicate immunization with ARCA RNA. Using beta-S-ARCA(D1) RNA more than 12% and 13% tetramer positive CD8^+-T-cells in peripheral blood and in the spleen, respectively, were measured.

Assay [7] has as its system immature dendritic cells. The assay is described as follows: d2eGFP expression (flow cytometry) after introduction of capped RNA into immature dendritic cells. The format is cell-based, human. As to conditions: iDCs.
Assay [8] relates to inguinal lymph nodes of mice. The assay is described as follows: In vivo luciferase imaging after intranodal injection of luciferase RNA. The procedure: FIG. 5. Effect of the 5′-cap structure on protein expression in vivo. Mice (n=9) have been injected intranodally with the same amount of luciferase encoding RNA with ARCA or beta-S-ARCA(D1) at the 5′-end (as indicated). The luciferase activity (given in RLU) has been measured after 2, 4, 8, 24, 48, and 72 hours. (A) Images of whole animals at the indicated time points of a representative mouse, which has been injected with ARCA or beta-S-ARCA(D1) RNA are shown. (B) Mean±standard error of the mean as measured in the time course. The significance has been determined using statistical analyses (*: P<0.005 and **: P<0.02).
RNA which is administered in this way is primarily taken up by immature dendritic cells. Thus, we have investigated whether stronger protein expression is also observed in lymph nodes for beta-S-ARCA(D1) RNA compared to RNAs with other cap structures (analyzed exemplarily for ARCA which we have applied in the earlier studies). […] After uptake of the RNA by cells of the lymph nodes and translation of the encoded luciferase, protein expression was quantified by measuring luciferase activity using in vivo imaging. […] 25 min after luciferin injection, photons emitted were quantified for an integration time of 1 min. […] To quantify the bioluminescence, regions of interest (ROI) were drawn and total flux (photons/sec, p/s) in ROI was measured. […]

Assay [9] relates to mature dendritic cells. The assay is described as follows: d2eGFP expression (flow cytometry) after introduction of capped RNA into mature dendritic cells. In kind it is cell-based, human. As to conditions: mDCs.
Assay [10] deals with HC11 cells. As to conditions: background, earlier work; cited from earlier work.
Assay [11] concerns immature dendritic cells. The assay is described as follows: Competition for translation: co-electroporation of d2eGFP RNA with luciferase RNA in immature dendritic cells. In kind it is cell-based. As to conditions: iDCs; same amount of d2eGFP RNA; after 24, 48, and 72 hours vs luciferase RNA only. How it is done: as §1
The results described so far indicate that the translational efficiency of an mRNA is influenced in dendritic cells by the type of the cap structure at its 5′ end. This is most likely due to differences in the efficiency by which the translational machinery is recruited to the different 5′ cap-structures. To corroborate this, we next analyzed (i) the effect of the RNA dose that is used for electroporation into immature dendritic cells, and (ii) the impact of a second RNA co-electroporated into immature dendritic cells on the protein expression. […]

The mark [12] stands for this setting: time point of maximal luciferase expression (functional RNA stability), mean ± SD.

Where “and” joins values, the source holds several entries; their conditions need not be identical. Identical values can stand only once. Entries after “also recorded” stand apart in the source; their conditions may differ. A value given as a limit tells only on which side of the number the result lay.

For the substance ApppG, in [1], the “protein expression (in words)” value is “do not result in protein expression”, the transl. efficiency is on record as 0.01 ± 0.00 and the “relative total protein expression” value stood at 0.008 ± 0.000. Also, in assay [2] (luciferase RNA), the “total protein expression (in words)” value is “do not result in any significant expression” and the transl. efficiency is recorded as 0.01 ± 0.00. Moreover, the “relative total protein expression” value in [2] came to 0.022 ± 0.001.

With GpppG, in assay [1], the “protein expression (in words)” value is listed as “do not result in protein expression”, the transl. efficiency is 0.31 ± 0.02, the “relative total protein expression” value worked out at 0.593 ± 0.005 and the “time of max.” value was determined as 27.5 ± 0.5 h. Further, in assay [2] (luciferase RNA), the “total protein expression (in words)” value was “do not result in any significant expression” and the transl. efficiency turned out to be 0.18 ± 0.01. Also, the “relative total protein expression” value in assay [2] came to 0.221 ± 0.001. The “time of max.” value in assay [2] (setting [12]) was determined as 11.5 ± 0.0 h.

As for m2^(7,2′-O)GppspG(D1) [beta-S-ARCA(D1)], in assay [3], the “Dcp2 cleavage compared to RNA with unmodified ARCA 5′-cap” value is 71%. Further, in assay [4], the “RNA stability / degradation (in words)” value is on record as “most stable RNA”. For the same substance, in assay [1], the transl. efficiency was 3.05 ± 0.14, the “relative total protein expression” value is given as 3.884 ± 0.032 and the “time of max.” value amounted to 20.1 ± 0.1 h. The “signal with 40 pmol relative to 20 pmol RNA” value in assay [5] (each time-point (2-72 hours)) is “about twice as high”. In assay [2] (luciferase RNA), the “expression increase (factor) compared to RNA with ARCA or post-transcriptionally modified RNA” value is given as “around 3”, the “total protein expression (in words)” value is given as “highest total protein expression”, the “total protein expression increase compared to RNA synthesized in presence of m^7GpppG” value is reported as “more than 13 fold” and the “total protein expression increase compared to beta-S-ARCA(D2) RNA” value is recorded as “about 2 fold”. Further, in assay [2] (luciferase RNA), the “translation efficiency increase in comparison to RNA with m^7GpppG” value (“translation efficiency increase” below) is given as “about 3.4 fold” and the transl. efficiency stood at 3.36 ± 0.09. The “relative total protein expression” value in [2] worked out at 13.094 ± 0.307. Also, in assay [6], the “tetramer positive CD8^+-T-cells in peripheral blood” value is on record as “more than 12%” and the “tetramer positive CD8^+-T-cells in the spleen” value is on record as greater than 13%. For the same substance, the “total protein expression (in words)” value in assay [7] is listed as “highest total protein expression”. The “protein expression compared to RNA with ARCA (in words)” value in assay [8] (2, 4, 8, 24, 48, and 72 hours after intranodal application) was “higher at each time point”. For the same substance, in assay [8] (intranodal injection, luciferase, 2-72 hours), the “expression throughout the entire time course (integral of the curve), increase vs ARCA RNA” value is reported as “about 8 fold”.

As to m2^(7,2′-O)GppspG(D2) [beta-S-ARCA(D2)], the “Dcp2 cleavage compared to RNA with unmodified ARCA 5′-cap” value in [3] was 6%. Moreover, in assay [1], the “protein expression (in words)” value was “highest protein expression”, the transl. efficiency is 3.30 ± 0.03, the “relative total protein expression” value is reported as 4.042 ± 0.053 and the “time of max.” value turned out to be 19.4 ± 0.1 h. Besides, in assay [2] (luciferase RNA), the “total protein expression (in words)” value is “second best total expression”, the “translation efficiency increase” value is listed as “about 3.5 fold” and the transl. efficiency is 3.53 ± 0.17. The “relative total protein expression” value in assay [2] is reported as 6.570 ± 0.075. Besides, the “time of max.” value in assay [2] (setting [12]) was 12.8 ± 0.0 h. Further, the “total protein expression (in words)” value in assay [9] is “highest total protein expression”. The “translation / total expression in HC11 cells (in words)” value in [10] was “more efficiently translated in HC11 cells; also recorded: strongest total expression”.

For m2^(7,3′-O)GpppG [ARCA], the transl. efficiency in assay [1] turned out to be 2.16 ± 0.00; in assay [2] (luciferase RNA), 2.52 ± 0.19. Further, the “relative total protein expression” value in assay [1] is recorded as 2.526 ± 0.015; in assay [2], 4.777 ± 0.042. Moreover, the “time of max.” value in assay [1] is 17.5 ± 0.3 h; in assay [2] (setting [12]), 12 h and 12.6 ± 0.1 h. For the same substance, the “level of luciferase protein with 40 pmol relative to 20 pmol RNA” value in assay [5] (24 hours after electroporation) is “about 1.6 fold”; in [5] (48 hours after electroporation), 1.4 fold; in [5] (72 hours after electroporation), 1.2 fold. In addition, in assay [2] (luciferase RNA), the “translation efficiency increase” value was “about 2.5 fold”. Further, the “tetramer positive CD8^+-T-cells in peripheral blood” value in assay [6] is listed as “about 5%”. Moreover, in [6], the “tetramer positive CD8^+-T-cells in the spleen” value was “about 6%”. Also, the “effect of co-electroporated d2eGFP RNA on expression of luciferase RNA” value in assay [11] is given as “decreased the expression”.

As to m^7GpppG [m7GpppG], the values for the transl. efficiency in [1] and in assay [2] (luciferase RNA) were 1.00 ± 0.05 and 1.00 ± 0.04, respectively. The “relative total protein expression” value in [1] was found to be 1.000 ± 0.003; in assay [2], 1.000 ± 0.007. The “time of max.” value in [1] came out at 16.0 ± 0.3 h; in assay [2] (setting [12]), 8.1 ± 1.1 h. Further, in [2] (time point of maximal luciferase expression (functional RNA stability), mean ± SD, listed as m^7GpppG), the “time of max. (hours)” value was “around 8 hours”.

With m^7Gppppm^7G [m7Gppppm7G], the “RNA stability / degradation (in words)” value in assay [4] is “most unstable RNA”. For the same substance, in [1], the “protein expression (in words)” value is given as “poorly translated”, the transl. efficiency is on record as 0.56 ± 0.04, the “relative total protein expression” value is given as 0.176 ± 0.001 and the “time of max.” value is 6.0 ± 0.3 h. For the same substance, in assay [2] (luciferase RNA), the “total protein expression (in words)” value was “even lower than that of RNA which has been transcribed in presence of m^7GpppG” and the transl. efficiency came out at 0.20 ± 0.10. The “relative total protein expression” value in assay [2] is 0.404 ± 0.004. Also, the “time of max.” value in assay [2] (setting [12]) amounted to 4.9 ± 0.1 h.
